From patent US12344610B2, “APOL1 inhibitors and methods of use” (Maze Therapeutics, Inc., priority 2022, dated 2025)

Target: T1, APOL1 G2 (Homo sapiens, UniProt O14791, DEL388-389)
T1 construct: expressed in transfected cells; host or cells: HEK293 T-REx clonal line stably expressing GCaMP6f (HEK T-REx/GCaMP6f/APOL1 G2 K6.3), doxycycline induced
T1 sequence (O14791 with tags, fused parts or gaps DEL388-389): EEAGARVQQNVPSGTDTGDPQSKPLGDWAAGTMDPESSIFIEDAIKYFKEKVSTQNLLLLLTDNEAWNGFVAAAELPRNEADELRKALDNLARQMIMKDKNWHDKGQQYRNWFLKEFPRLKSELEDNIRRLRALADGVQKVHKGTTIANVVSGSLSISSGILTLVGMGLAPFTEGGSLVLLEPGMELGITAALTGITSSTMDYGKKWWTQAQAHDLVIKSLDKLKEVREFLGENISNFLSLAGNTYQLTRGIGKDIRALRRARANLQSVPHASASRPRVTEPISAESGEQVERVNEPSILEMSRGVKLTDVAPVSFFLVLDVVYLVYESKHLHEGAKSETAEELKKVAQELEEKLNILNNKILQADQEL
Test: APOL1-mediated calcium transport (calcium influx) assay, HEK T-REx/GCaMP6f/APOL1 G2 K6.3 cells, FLIPR TETRA
Type: cell-based
Details: prevention of calcium influx; geometric mean of at least 2 assay runs; † = average of a technical replicate from a single assay run
Outline: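 A HEK293 T-REx clone stably expressing GCaMP6f had APOL1 G2 induced with doxycycline (20 ng/mL solution added) for 6 h. Cells were then washed into Ca2+-free Tyrode's buffer (pH 7.4) and preincubated with compounds (duplicate 8-point) for 10 min at room temperature. Ca2+ injection to 5 mM final produced FLIPR GCaMP fluorescence, giving AC50 for influx inhibition (geometric mean, ≥2 runs).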

Structure (SMILES) | AC50
CC(COc1ccc2c(c1)CCC(=O)N2C)N1CCC2(CC1)C(=O)Nc1ccc(Cl)cc12 (single isomer, unassigned) [Compound 200] | 1200 nM
CC(COc1ccc2c(c1)CCC(=O)N2C)N1CCC2(CC1)C(=O)Nc1ccc(C#N)cc12 (single isomer, unassigned) [Compound 203, (S) or (R)-1′-{1-[(1-methyl-2-oxo-1,2,3,4-tetrahydroquinolin-6-yl)oxy]propan-2-yl}-2-oxo-1,2-dihydrospiro[indole-3,4′-piperidine]-5-carbonitrile] | 1190 nM
C[C@@H](COc1ccc(S(C)(=O)=O)c(C(F)F)c1)N1CCC2(CC1)C(=O)Nc1ccc(Cl)cc12 (single isomer, unassigned) [Compound 210] | 1540 nM
C[C@@H](COc1ccc2c(cnn2C)c1)N1CCC2(CC1)C(=O)Nc1ccc(Cl)cc12 (single isomer, unassigned) [Compound 211] | 1290 nM
C[C@@H](COc1ccc(S(C)(=O)=O)c(C(F)F)c1)N1CCC2(CC1)C(=O)Nc1ccc(C#N)cc12 (single isomer, unassigned) [Compound 212] | 1360 nM
CS(=O)(=O)c1ccc(OCCN2CCC3(CC2)C(=O)Nc2ccc(Cl)cc23)cc1C(F)CF (single isomer, unassigned) [Compound 218, 5-chloro-1′-(2-{3-[(1S or 1R)-1,2-difluoroethyl]-4-methanesulfonylphenoxy}ethyl)-1,2-dihydrospiro[indole-3,4′-piperidin]-2-one] | 690 nM
CS(=O)(=O)c1ccc(OCCN2CCC3(CC2)C(=O)Nc2ccc(Cl)cc23)cc1C(F)CF (single isomer, unassigned) [Compound 219, 5-chloro-1′-(2-{3-[(1R or 1S)-1,2-difluoroethyl]-4-methanesulfonylphenoxy}ethyl)-1,2-dihydrospiro[indole-3,4′-piperidin]-2-one] | 835 nM
CS(=O)(=O)c1ccc(OCCN2CCC3(CC2)C(=O)Nc2ccc(C#N)cc23)cc1C(F)CF (single isomer, unassigned) [Compound 221, 1′-(2-{3-[(1S or 1R)-1,2-difluoroethyl]-4-methanesulfonyl-phenoxy}ethyl)-2-oxo-1,2-dihydrospiro [indole-3,4′-piperidine]-5-carbonitrile] | 598 nM
CC(COc1ccc(C2(S(C)(=O)=O)COC2)cc1)N1CCC2(CC1)C(=O)Nc1ccc(C#N)cc12 (single isomer, unassigned) [Compound 263, (S) or (R)-1′-{1-[4-(3-methanesulfonyloxetan-3-yl)phenoxy]propan-2-yl}-2-oxo-1,2-dihydrospiro[indole-3,4′-piperidine]-5-carbonitrile] | 2540 nM
CN1C(=O)C2(CCN(CCOc3ccc(C4(S(C)(=O)=O)CC(O)C4)cc3)CC2)c2cc(C(F)F)ccc21 (single isomer, unassigned) [Compound 278, 5-(difluoromethyl)-1-methyl-1′-(2-{4-[(cis) or (trans)-3-hydroxy-1-methanesulfonylcyclobutyl]phenoxy}ethyl)-1,2-dihydrospiro[indole-3,4′-piperidin]-2-one] | 769 nM
CS(=O)(=O)C1(c2ccc(OCCN3CCC4(CC3)C(=O)Nc3ccc(C(F)F)cc34)cc2)CC(O)C1 (single isomer, unassigned) [Compound 281, 5-(difluoromethyl)-1′-(2-{4-[(cis) or (trans)-3-hydroxy-1-methanesulfonylcyclobutyl]phenoxy}ethyl)-1,2-dihydrospiro[indole-3,4′-piperidin]-2-one] | 1310 nM
CC(O)c1ncc(OCCN2CCC3(CC2)C(=O)Nc2ccc(Cl)cc23)cn1 (single isomer, unassigned) [Compound 285, 5-chloro-1′-[2-({2-[(1S) or (1R)-1-hydroxyethyl]pyrimidin-5-yl}oxy)ethyl]-1,2-dihydrospiro[indole-3,4′-piperidin]-2-one] | 714 nM
